In PMC3039983, “Cloning, Expression, and Characterization of Thermotolerant Manganese Superoxide Dismutase from Bacillus sp. MHS47” (International Journal of Molecular Sciences, 2011):

Target: T1, MnSOD47 (Bacillus sp. MHS47, UniProt E9LK91)
T1 construct: gene sodA
Assay: xanthine oxidase/hypoxanthine-tetrazolium SOD assay, […] nm
Type: biochemical
Conditions: superoxide generated in situ by xanthine oxidase/hypoxanthine; indirect read-out

T1 sequence (E9LK91 1-203 limits assumed): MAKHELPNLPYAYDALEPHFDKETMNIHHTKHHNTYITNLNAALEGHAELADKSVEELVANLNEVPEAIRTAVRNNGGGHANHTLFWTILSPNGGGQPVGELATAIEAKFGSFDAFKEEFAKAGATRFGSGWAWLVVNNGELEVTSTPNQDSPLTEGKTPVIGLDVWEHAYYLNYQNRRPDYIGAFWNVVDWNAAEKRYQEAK

[O]O [superoxide radical]
xanthine oxidase/hypoxanthine-tetrazolium SOD assay, 450 nm: coupled to a tetrazolium salt to detect the reduction in superoxide radicals
